From patent US10315992B2, “Tetracyline compounds” (Tetraphase Pharmaceuticals, Inc., priority 2012, dated 2019)
Values after ≈ are worked out from the molar mass of the structure shown. Where two headings read alike, the source gives them in different places.

Legend:
[1] = tested on: Staphylococcus aureus SA100 (ATCC 13709, MSSA, Smith strain); assay: MIC assay, SA100; format: cell-based
[2] = tested on: Staphylococcus aureus SA101 (ATCC 29213, MSSA); assay: MIC assay, SA101; format: cell-based
[3] = tested on: Staphylococcus aureus SA191 (HA-MRSA, tetracycline-resistant); assay: MIC assay, SA191; format: cell-based
[4] = tested on: Staphylococcus aureus SA161 (HA-MRSA, tet(M)); assay: MIC assay, SA161; format: cell-based; settings: for MIC: Staphylococcus aureus, MRSA
[5] = tested on: Staphylococcus epidermidis SE164 (ATCC 12228); assay: MIC assay, SE164; format: cell-based; settings: ATCC12228, read-out: MIC SE 164 12228
[6] = tested on: Enterococcus faecalis EF327 (wound isolate, tet(M)); assay: MIC assay, EF327; format: cell-based
[7] = tested on: Escherichia coli EC155 (tet(A)); assay: MIC assay, EC155; format: cell-based; settings: for MIC: Escherichia coli, read-out: MIC EC 155 tetA
[8] = tested on: Enterobacter cloacae EC603 (urine isolate); assay: MIC assay, EC603; format: cell-based
[9] = tested on: Proteus mirabilis PM385 (urine ESBL+ isolate); assay: MIC assay, PM385; format: cell-based
[10] = tested on: Pseudomonas aeruginosa PA556 (multiple-Mex efflux pump knockout strain); assay: microbe, parasite or virus in culture; format: cell-based
[11] = tested on: Pseudomonas aeruginosa PA673 (2009 urine isolate); assay: MIC assay, PA673; format: cell-based
[12] = tested on: Acinetobacter baumannii AB250 (cystic fibrosis isolate, MDR); assay: MIC assay, AB250; format: cell-based
[13] = tested on: Klebsiella pneumoniae KP153 (tet(A), MDR, ESBL+)
[14] = tested on: Klebsiella pneumoniae KP457 (2009 ESBL+, CTX-M, OXA)
[15] = tested on: Klebsiella pneumoniae KP109 (ATCC 13883); assay: MIC assay, KP109; settings: K. pneumoniae ATCC 13883; Table 4
[16] = tested on: Burkholderia cenocepacia BC240 (cystic fibrosis isolate, MDR); assay: MIC assay, BC240; format: cell-based; settings: Burkholderia cenocepacia, control compounds
[17] = tested on: Klebsiella pneumoniae KP109 (ATCC 13883)
[18] = read-out: MIC SA 101 292 13, S. aureus ATCC 29213, MSSA, Table 6
[19] = read-out: MIC SA 101 29213, S. aureus ATCC 29213, MSSA, Table 4
[20] = read-out: MIC SA 101 29213, S. aureus ATCC 29213, MSSA, Table 5
[21] = read-out: MIC SA 101 29213, S. aureus ATCC 29213, MSSA, Table 7
[22] = read-out: MIC SA 101 29213, control compounds
[23] = read-out: MIC SA 101 29213, control compounds, numeric
[24] = K. pneumoniae tet(A), MDR, ESBL+, Table 4
[25] = K. pneumoniae tet(A), MDR, ESBL+, Table 5

SMILES: CN(C)c1cc(NC(=O)CNC(C)(C)C)c(O)c2c1C[C@H]1C[C@H]3[C@H](N(C)C)C(O)=C(C(N)=O)C(=O)[C@@]3(O)C(O)=C1C2=O [Tigecycline, tigecycline]
- MIC ([1]; read-out: MIC SA 100 13709): 0.063 µg/mL (≈ 0.108 µM)
- MIC [2, 18]: 0.063 µg/mL (≈ 0.108 µM)
- MIC [2, 19]: 0.063 µg/mL (≈ 0.108 µM)
- MIC [2, 20]: 0.0625 µg/mL (≈ 0.107 µM)
- MIC [2, 21]: 0.06 µg/mL (≈ 0.102 µM)
- MIC [2, 22]: 0.06 µg/mL (≈ 0.102 µM)
- MIC [2, 23]: 0.06 µg/mL (≈ 0.102 µM)
- MIC ([3]; MRSA, read-out: MIC SA 191): 0.5 µg/mL (≈ 0.854 µM)
- MIC ([4]; read-out: MIC SA 161 MRSAtetM): 0.125 µg/mL (≈ 0.213 µM)
- MIC ([4]; read-out: MIC SA 161 tet M): 0.125 µg/mL (≈ 0.213 µM)
- MIC ([4]; read-out: MIC SA 161 tetM): 0.13 µg/mL (≈ 0.222 µM)
- MIC [5]: 0.125 µg/mL (≈ 0.213 µM)
- MIC ([6]; read-out: MIC EF 327 tet M): 0.063 µg/mL (≈ 0.108 µM)
- MIC ([6]; read-out: MIC EF 327 tetM): 0.06 µg/mL (≈ 0.102 µM)
- MIC [7]: 0.5 µg/mL (≈ 0.854 µM)
- MIC [8]: 2 µg/mL (≈ 3.41 µM)
- MIC ([8]; read-out: MIC EC 603 tetA): 2 µg/mL (≈ 3.41 µM)
- MIC ([9]; read-out: MIC PM 385): 4 µg/mL (≈ 6.83 µM)
- MIC ([9]; read-out: MIC PM 385 CTX-M15): 4 µg/mL (≈ 6.83 µM)
- MIC [10]: 0.25 µg/mL (≈ 0.427 µM)
- MIC ([10]; read-out: MIC PA 556): 0.25 µg/mL (≈ 0.427 µM)
- MIC [11]: 16 µg/mL (≈ 27.3 µM)
- MIC ([11]; read-out: MIC PA 673): 32 µg/mL (≈ 54.6 µM)
- MIC [12]: 8 µg/mL (≈ 13.7 µM)
- MIC ([12]; read-out: MIC AB 250): 8 µg/mL (≈ 13.7 µM)
- MIC KP 153 tetA [13, 24]: 1 µg/mL (≈ 1.71 µM)
- MIC KP 153 tetA [13, 25]: 1 µg/mL (≈ 1.71 µM)
- MIC KP 457 CTX- M-15 ([14]; K. pneumoniae ESBL+, CTX-M, Table 6): 1 µg/mL (≈ 1.71 µM)
- MIC KP 457 CTX- M-15 ([14]; K. pneumoniae ESBL+, CTX-M, Table 7): 1 µg/mL (≈ 1.71 µM)
- MIC KP 457 CTX-M-15 ([14]; control compounds): 1 µg/mL (≈ 1.71 µM)
- MIC KP 457 ([14]; control compounds, numeric): 1 µg/mL (≈ 1.71 µM)
- MIC KP 109 13883 [15]: 0.125 µg/mL (≈ 0.213 µM)

SMILES: CN(C)[C@@H]1C(O)=C(C(N)=O)C(=O)[C@@]2(O)C(O)=C3C(=O)c4c(O)cccc4C[C@H]3C[C@@H]12 [Sancycline, sancycline]
- MIC ([1]; read-out: MIC SA 100 13709): 1 µg/mL (≈ 2.41 µM)
- MIC [2, 18]: 0.5 µg/mL (≈ 1.21 µM)
- MIC [2, 19]: 0.5 µg/mL (≈ 1.21 µM)
- MIC [2, 20]: 0.5 µg/mL (≈ 1.21 µM)
- MIC [2, 21]: 0.5 µg/mL (≈ 1.21 µM)
- MIC [2, 22]: 0.5 µg/mL (≈ 1.21 µM)
- MIC [2, 23]: 0.5 µg/mL (≈ 1.21 µM)
- MIC ([3]; MRSA, read-out: MIC SA 191): 8 µg/mL (≈ 19.3 µM)
- MIC ([4]; read-out: MIC SA 161 MRSAtetM): 2 µg/mL (≈ 4.83 µM)
- MIC ([4]; read-out: MIC SA 161 tet M): 2 µg/mL (≈ 4.83 µM)
- MIC ([4]; read-out: MIC SA 161 tetM): 2 µg/mL (≈ 4.83 µM)
- MIC [5]: 4 µg/mL (≈ 9.65 µM)
- MIC ([6]; read-out: MIC EF 327 tet M): 4 µg/mL (≈ 9.65 µM)
- MIC ([6]; read-out: MIC EF 327 tetM): 4 µg/mL (≈ 9.65 µM)
- MIC [7]: 32 µg/mL (≈ 77.2 µM)
- MIC [8]: 32 µg/mL (≈ 77.2 µM)
- MIC ([8]; read-out: MIC EC 603 tetA): 32 µg/mL (≈ 77.2 µM)
- MIC ([9]; read-out: MIC PM 385): 8 µg/mL (≈ 19.3 µM)
- MIC ([9]; read-out: MIC PM 385 CTX-M15): 8 µg/mL (≈ 19.3 µM)
- MIC [10]: 1 µg/mL (≈ 2.41 µM)
- MIC ([10]; read-out: MIC PA 556): 1 µg/mL (≈ 2.41 µM)
- MIC [11]: 32 µg/mL (≈ 77.2 µM)
- MIC ([11]; read-out: MIC PA 673): 33 µg/mL (≈ 79.6 µM)
- MIC [12]: 16 µg/mL (≈ 38.6 µM)
- MIC ([12]; read-out: MIC AB 250): 16 µg/mL (≈ 38.6 µM)
- MIC KP 153 tetA [13, 24]: 32 µg/mL (≈ 77.2 µM)
- MIC KP 153 tetA [13, 25]: 32 µg/mL (≈ 77.2 µM)
- MIC KP 457 [14]: 8 µg/mL (≈ 19.3 µM)
- MIC KP 457 CTX- M-15 [14]: 8 µg/mL (≈ 19.3 µM)
- MIC KP 457 CTX-M-15 [14]: 8 µg/mL (≈ 19.3 µM)
- MIC KP 109 13883 [15]: 8 µg/mL (≈ 19.3 µM)

SMILES: CN(C)c1ccc(O)c2c1C[C@H]1C[C@H]3[C@H](N(C)C)C(O)=C(C(N)=O)C(=O)[C@@]3(O)C(O)=C1C2=O [Minocycline, minocycline]
- MIC ([1]; S. aureus ATCC 13709, MSSA, Table 4, read-out: MIC SA 100 13709): 0.063 µg/mL (≈ 0.138 µM)
- MIC ([2]; S. aureus ATCC 29213, MSSA, Table 4, read-out: MIC SA 101 29213): 0.063 µg/mL (≈ 0.138 µM)
- MIC ([2]; S. aureus ATCC 29213, MSSA, Table 5, read-out: MIC SA 101 29213): 0.0625 µg/mL (≈ 0.137 µM)
- MIC ([2]; S. aureus ATCC 29213, MSSA, Table 6, read-out: MIC SA 101 292 13): 0.063 µg/mL (≈ 0.138 µM)
- MIC ([2]; S. aureus ATCC 29213, MSSA, Table 7, read-out: MIC SA 101 29213): 0.06 µg/mL (≈ 0.131 µM)
- MIC ([2]; control compounds, numeric, read-out: MIC SA 101 29213): 0.06 µg/mL (≈ 0.131 µM)
- MIC ([2]; control compounds, read-out: MIC SA 101 29213): 0.06 µg/mL (≈ 0.131 µM)
- MIC ([3]; S. aureus HA-MRSA, tetracycline-resistant, Table 5, read-out: MIC SA 191): 8 µg/mL (≈ 17.5 µM)
- MIC SA 161 tetM ([4]; S. aureus HA-MRSA, tet(M), Table 5): 8 µg/mL (≈ 17.5 µM)
- MIC ([6]; E. faecalis tet(M), Table 6, read-out: MIC EF 327 tet M): 32 µg/mL (≈ 69.9 µM)
- MIC ([6]; control compounds, numeric, read-out: MIC EF 327 tetM): 32 µg/mL (≈ 69.9 µM)
- MIC ([7]; E. coli tet(A), Table 7): 8 µg/mL (≈ 17.5 µM)
- MIC EC 155 tetA ([7]; control compounds): 8 µg/mL (≈ 17.5 µM)
- MIC ([8]; control compounds, c7, strain EC603 inferred, read-out: MIC): 33 µg/mL (≈ 72.1 µM)
- MIC ([8]; control compounds, numeric, read-out: MIC EC 603 tetA): 33 µg/mL (≈ 72.1 µM)
- MIC ([9]; P. mirabilis ESBL+, Table 6, read-out: MIC PM 385): 16 µg/mL (≈ 35 µM)
- MIC ([9]; control compounds, numeric, read-out: MIC PM 385 CTX-M15): 16 µg/mL (≈ 35 µM)
- MIC ([11]; control compounds, c3, strain PA673 inferred, read-out: MIC): 32 µg/mL (≈ 69.9 µM)
- MIC ([11]; control compounds, numeric, read-out: MIC PA 673): 33 µg/mL (≈ 72.1 µM)
- MIC ([12]; control compounds, c8, strain AB250 inferred, read-out: MIC): 8 µg/mL (≈ 17.5 µM)
- MIC ([12]; control compounds, numeric, read-out: MIC AB 250): 8 µg/mL (≈ 17.5 µM)
- MIC ([16]; c10, strain BC240 inferred, read-out: MIC): 8 µg/mL (≈ 17.5 µM)
- MIC ([16]; numeric, read-out: MIC BC 240): 8 µg/mL (≈ 17.5 µM)
- MIC KP 109 13883 [17]: 1 µg/mL (≈ 2.19 µM)
- MIC KP 153 tetA [13]: 8 µg/mL (≈ 17.5 µM)
- MIC KP 457 [14]: 8 µg/mL (≈ 17.5 µM)
- MIC KP 457 CTX- M-15 [14]: 8 µg/mL (≈ 17.5 µM)
- MIC KP 457 CTX-M-15 [14]: 8 µg/mL (≈ 17.5 µM)
